How the values were obtained:
[1] = tested on: Non-Small-Cell Lung Cancer; test: Response rate of Iressa in Japanese NSCLC patients, without and with filtering by the serum mass spectrometer test; format: in vivo, human; details: Japanese population
Description: Continuing with FIG. 3, step 312, learning may be utilized in generating classifiers for a training set of spectra. In the case of sampling serum for detecting whether an anti-cancer drug will be effective on non-small-cell lung cancer, control groups of patients were utilized, including using three sets of patients whose cancer progressed following chemotherapy. Each of the patients was treated with Iressa and information, including survival times, of these patients was recorded. […] Each data set represents the cancer research center from which spectra and associated patient information was received.
TABLE III is a summary of the data set attributes used in a study to determine whether a classifier algorithm could be effective in determining whether a cancer patient would be responsive to Iressa. Data sets Italian 1, Italian 2, Japan 1, and Japan 2 were treated with Iressa following sample collection. Training and testing in the development phase was done crosswise from the Italian 1 sets and the two Japanese sets. The patient data included survival data, where the Italian set had very complete patient history together with treatment and cancer type, the Japanese sets only included prognostic information relating to the WHO definitions of clinical labels, including stable disease (SD), progressive disease (PD), and partial responders (PR) measured by CT imaging. […]

[2] = tested on: Non-Small-Cell Lung Cancer; details: NSCLC patients in Asia, compared with Caucasian populations; cited from earlier work

COc1cc2ncnc(Nc3ccc(F)c(Cl)c3)c2cc1OCCCN1CCOCC1 [Iressa, gefitinib]
response rate of Iressa ([1]; after serum based mass spectrometer test filters non-responders from responders): 90% | response rate of Iressa ([1]; before filtering non-responders from responders): 65% | response rate [2]: considerably higher

Source: patent US20070231921A1, “Method and system for determining whether a drug will be effective on a patient with a disease” (priority 2006, published 2007)
